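Where inhibition never reached the appropriate level, the endpoint shown equals the highest concentration tested. Otherwise, values were interpolated linearly from a five-concentration, 48-hour dose response in 96-well plates. GI50: concentration for 50% inhibition of growth.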 Activity calls are given as the source filed them. No stated cut-off is given here; in the data, active = GI50 up to about 1.1 µM and inactive = higher.
Assays:
Experiment in all cases: growth of human tumour cells (NCI), 48 h
786-0 = tested on: 786-0
A498 = tested on: A498
A549 = tested on: A549
ACHN = tested on: ACHN
BT-549 = tested on: BT-549
CAKI-1 = tested on: CAKI-1
CCRF-CEM = tested on: CCRF-CEM
COLO 205 = tested on: COLO 205
DU-145 = tested on: DU-145
EKVX = tested on: EKVX
HCC 2998 = tested on: HCC 2998
HCT-116 = tested on: HCT-116
HCT-15 = tested on: HCT-15
HL-60 = tested on: HL-60
HOP-62 = tested on: HOP-62
HOP-92 = tested on: HOP-92
HT-29 = tested on: HT-29
Hs-578T = tested on: Hs-578T
IGROV-1 = tested on: IGROV-1
K562 = tested on: K562
KM12 = tested on: KM12
LOX IMVI = tested on: LOX IMVI
M14 = tested on: M14
MCF7 = tested on: MCF7
MDA-MB-231 = tested on: MDA-MB-231
MDA-MB-435 = tested on: MDA-MB-435
MDA-N = tested on: MDA-N
MOLT-4 = tested on: MOLT-4
Malme-3M = tested on: Malme-3M
NCI-H23 = tested on: NCI-H23
NCI-H460 = tested on: NCI-H460
NCI-H522 = tested on: NCI-H522
NCI/ADR-RES = tested on: NCI/ADR-RES
OVCAR-3 = tested on: OVCAR-3
OVCAR-5 = tested on: OVCAR-5
OVCAR-8 = tested on: OVCAR-8
PC-3 = tested on: PC-3
RPMI-8226 = tested on: RPMI-8226
RXF 393 = tested on: RXF 393
SF-268 = tested on: SF-268
SF-295 = tested on: SF-295
SF-539 = tested on: SF-539
SK-MEL-28 = tested on: SK-MEL-28
SK-MEL-2 = tested on: SK-MEL-2
SK-MEL-5 = tested on: SK-MEL-5
SK-OV-3 = tested on: SK-OV-3
SN12C = tested on: SN12C
SNB-19 = tested on: SNB-19
SNB-75 = tested on: SNB-75
SR = tested on: SR
SW-620 = tested on: SW-620
T47D = tested on: T47D
TK-10 = tested on: TK-10
U-251 = tested on: U-251
UACC-257 = tested on: UACC-257
UACC-62 = tested on: UACC-62
UO-31 = tested on: UO-31

With `CC(C)(C)OC(=O)NC(Cc1ccc(OCc2ccccc2)cn1)C(=O)N1CCSCC1` (configuration not stated) the GI50 (786-0) was 57.9 µM (inactive), the GI50 (A498) was 45.4 µM (inactive) and the GI50 (A549) was 56.4 µM (inactive). For the same compound, the GI50 (ACHN) was 57.3 µM (inactive), the GI50 (BT-549) was 27.9 µM (inactive) and the GI50 (CAKI-1) was 73.3 µM (inactive). The GI50 (CCRF-CEM) was 29.9 µM (inactive), the GI50 (COLO 205) was 18.6 µM (inactive) and the GI50 (DU-145) was 51.9 µM (inactive). The GI50 (EKVX) was 41.6 µM (inactive), the GI50 (HCC 2998) was 57.8 µM (inactive) and the GI50 (HCT-116) was 48.6 µM (inactive). The GI50 (HCT-15) was 46.7 µM, the GI50 (HL-60) was 16.4 µM (inactive) and the GI50 (HOP-62) was > 100 µM (inactive). For the same compound, the GI50 (HOP-92) was 47.4 µM (inactive), the GI50 (HT-29) was 32.7 µM (inactive) and the GI50 (Hs-578T) was 77.3 µM (inactive). The GI50 (IGROV-1) was 75.9 µM (inactive), the GI50 (K562) was 31.7 µM (inactive) and the GI50 (KM12) was 36.4 µM (inactive). For the same compound, the GI50 (LOX IMVI) was 28.3 µM (inactive), the GI50 (M14) was 54.8 µM (inactive) and the GI50 (MCF7) was 38.3 µM (inactive). The GI50 (MDA-MB-231) was > 100 µM (inactive), the GI50 (MDA-MB-435) was 28.6 µM (inactive) and the GI50 (MDA-N) was 40.8 µM (inactive). The GI50 (MOLT-4) was 22.9 µM (inactive), the GI50 (Malme-3M) was 46.5 µM (inactive) and the GI50 (NCI-H23) was 28.6 µM (inactive). The GI50 (NCI-H460) was 38 µM (inactive), the GI50 (NCI-H522) was 32.9 µM (inactive) and the GI50 (NCI/ADR-RES) was 27.7 µM (inactive). The GI50 (OVCAR-3) was 62.2 µM (inactive), the GI50 (OVCAR-5) was 93.1 µM (inactive) and the GI50 (OVCAR-8) was 40.1 µM (inactive). For the same compound, the GI50 (PC-3) was 31.4 µM (inactive), the GI50 (RPMI-8226) was 21.7 µM (inactive) and the GI50 (RXF 393) was 33.3 µM (inactive). The GI50 (SF-268) was 65.3 µM (inactive), the GI50 (SF-295) was 37.2 µM (inactive) and the GI50 (SF-539) was 49 µM (inactive). The GI50 (SK-MEL-28) was 78.7 µM (inactive), the GI50 (SK-MEL-2) was 38.7 µM (inactive) and the GI50 (SK-MEL-5) was 16.3 µM (inactive). For the same compound, the GI50 (SK-OV-3) was 86.3 µM (inactive), the GI50 (SN12C) was 44.6 µM (inactive) and the GI50 (SNB-19) was > 100 µM (inactive). For the same compound, the GI50 (SNB-75) was 24 µM (inactive), the GI50 (SR) was 27 µM (inactive) and the GI50 (SW-620) was 81.7 µM (inactive). The GI50 (T47D) was 20.8 µM (inactive), the GI50 (TK-10) was 47.3 µM (inactive) and the GI50 (U-251) was 74.3 µM (inactive). For the same compound, the GI50 (UACC-257) was 26.4 µM (inactive), the GI50 (UACC-62) was 52.5 µM (inactive) and the GI50 (UO-31) was 50.6 µM (inactive).

From ChEMBL document CHEMBL1201862, “PubChem BioAssay data set” (2004)
